Data set [1] deals with MDR1-MDCK cells. Put plainly: MDR1-MDCK Permeability and Identification of P-gp Substrate (Bi-directional). The following applies: for efflux ratio: minus inhibitor (absence of cyclosporin A). The class given is in vitro ADME, canine. As for the experimental part:
MDR1-MDCK Permeability and Identification of P-gp Substrate (Bi-directional): Madin-Darby canine kidney (MDCK) cells are an epithelial cell line of canine kidney origin. These cells can be stably transfected to express active P-glycoprotein (MDR1-MDCK) and are ideal for studying drug efflux. Test compound was added to either the apical or basolateral side of a confluent monolayer of MDR1-MDCK cells and permeability was measured by monitoring the appearance of the test compound on the opposite side of the monolayer using LC-MS/MS. The efflux ratio (ER) was calculated from the ratio of B-A and A-B permeabilities. Experiments were performed in the absence and presence of a P-glycoprotein (P-gp) inhibitor (cyclosporin A (10 μM)) to determine whether the compound was subject to P-gp mediated efflux.
Experimental Procedure: MDR1-MDCK cells obtained from the NIH (Rockville, MD, USA) were used between passage numbers 6-30. Cells were seeded onto Millipore Multiscreen Transwell plates at 3.4×10^5 cells/cm^2. The cells were cultured in DMEM and media was changed on day 3. On day 4 the permeability study was performed. Cell culture and assay incubations were carried out at 37° C. in an atmosphere of 5% CO2 with a relative humidity of 95%. […]
The dosing solutions were prepared by diluting test compound with assay buffer to give a final test compound concentration of 10 μM (final DMSO concentration of 1% v/v). […] Test compound permeability was measured on two occasions, in the absence and in the presence of a P-gp inhibitor on both sides of the monolayer. […]
For assessment of A-B permeability. […] Test compound permeability was assessed in duplicate. […] Test and control compounds were quantified by LC-MS/MS cassette analysis using an 8-point calibration with appropriate dilution of the samples. […] The starting concentration (C0) was determined from the dosing solution and the experimental recovery calculated from C0 and both apical and basolateral compartment concentrations. […]

For data set [2], the target named is T1, α2B(h) (Homo sapiens, UniProt P18089).
T1 sequence (P18089 1-450): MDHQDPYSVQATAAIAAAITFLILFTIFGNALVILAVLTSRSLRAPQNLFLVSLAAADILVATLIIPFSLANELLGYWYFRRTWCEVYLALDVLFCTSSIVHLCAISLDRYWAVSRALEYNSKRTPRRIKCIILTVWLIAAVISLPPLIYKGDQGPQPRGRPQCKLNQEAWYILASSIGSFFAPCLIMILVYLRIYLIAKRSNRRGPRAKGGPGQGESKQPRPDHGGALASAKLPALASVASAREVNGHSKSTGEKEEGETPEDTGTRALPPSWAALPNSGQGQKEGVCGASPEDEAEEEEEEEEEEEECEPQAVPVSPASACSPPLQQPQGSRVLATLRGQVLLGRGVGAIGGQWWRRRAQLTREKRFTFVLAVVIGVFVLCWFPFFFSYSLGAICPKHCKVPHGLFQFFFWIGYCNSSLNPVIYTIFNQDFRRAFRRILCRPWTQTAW
The class given is binding.

The target of data set [3] is δ2 (DOP) (h) (Homo sapiens, UniProt P41143). The class given is binding.
Sequence of δ2 (DOP) (h) (P41143 whole entry): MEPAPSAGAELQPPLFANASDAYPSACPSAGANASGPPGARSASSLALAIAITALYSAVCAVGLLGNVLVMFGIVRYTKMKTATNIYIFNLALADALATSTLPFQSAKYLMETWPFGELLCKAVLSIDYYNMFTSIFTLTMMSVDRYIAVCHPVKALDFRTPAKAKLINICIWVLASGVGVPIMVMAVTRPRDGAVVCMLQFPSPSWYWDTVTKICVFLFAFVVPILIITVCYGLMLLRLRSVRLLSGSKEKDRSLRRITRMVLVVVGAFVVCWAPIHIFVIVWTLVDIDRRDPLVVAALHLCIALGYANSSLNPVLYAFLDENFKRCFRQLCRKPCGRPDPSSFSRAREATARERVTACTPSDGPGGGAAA
The target of data set [4] is κ (KOP) (Rattus norvegicus, UniProt P34975). Type of data set: binding.
Sequence of κ (KOP) (P34975 whole entry): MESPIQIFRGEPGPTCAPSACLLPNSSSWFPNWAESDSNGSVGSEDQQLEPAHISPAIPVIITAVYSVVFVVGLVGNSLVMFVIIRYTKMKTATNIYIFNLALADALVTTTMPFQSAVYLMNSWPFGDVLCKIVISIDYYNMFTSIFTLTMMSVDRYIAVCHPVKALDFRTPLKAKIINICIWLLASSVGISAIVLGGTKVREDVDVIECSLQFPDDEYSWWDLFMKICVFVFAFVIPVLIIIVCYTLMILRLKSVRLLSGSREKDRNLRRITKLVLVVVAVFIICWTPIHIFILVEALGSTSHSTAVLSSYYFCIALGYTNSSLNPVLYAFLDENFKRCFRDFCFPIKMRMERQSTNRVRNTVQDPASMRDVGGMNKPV
Data set [5] has as its target T2, μ (MOP) (h) (Homo sapiens, UniProt P35372). Type of data set: binding.
Data set [6] has as its target T3, CYP2D6 (Homo sapiens, UniProt P10635).
T3 construct: from tissue
Put plainly: Time Dependent Inhibition of CYP2D6 (Dextromethorphan; IC50 Shift). The class given is in vitro ADME. Particulars: for CYP2D6 inhibition: at 25 μM. As for the experimental part: The probe substrate dextromethorphan (5 μM) and NADPH (1 mM) were then added (final DMSO concentration 0.3%) and the samples incubated for 5 min at 37° C. The selective time dependent CYP2D6 inhibitor, paroxetine, was screened alongside the test compounds as a positive control. The reactions were terminated by the addition of an aliquot of the incubation into methanol. The samples were centrifuged at 2500 rpm for 30 min at 4° C., and aliquots of the supernatant are diluted with formic acid in deionised water (final concentration 0.1%) containing internal standard prior to analysis of dextrorphan by LC-MS/MS.

Data set [7] relates to plasma proteins. Put plainly: Binding to plasma proteins. Type of data set: in vitro ADME.
Data set [8] is described as follows: Bioavailability and Stability. Type of data set: in vitro ADME. An excerpt:
Bioavailability and Stability: Compounds of the invention were studied in detail, using several parameters to evaluate bioavailability and stability.

For data set [9], the system named is animal models. Put plainly: Toxicity in animal models. The class given is in vivo. Particulars: many animal models, even at high concentrations. An excerpt: Toxicity: The Compound 1 was studied for its toxicity in many animal models.
Data set [10] relates to L-DOPA induced dyskinesias. Put plainly: L-DOPA induced dyskinesias, Rodent in vivo model.
The subject of data set [11] is L-DOPA induced dyskinesias. Put plainly: L-DOPA induced dyskinesias, Primate in vivo model.
The subject of data set [12] is CD-1 mice. Put plainly: Mice conditioned place preference (CPP) chamber test. The class given is in vivo. Particulars: Compound 1 10 mg/kg IP, 10 minutes later Morphine 10 mg/kg SC, versus Morphine alone; FIG. 1.
Data set [13] relates to CD-1 mice. Put plainly: Mouse Tail Flick Test. Type of data set: in vivo. Particulars: compound 1 10 mg/kg IP, 10 minutes later Morphine 10 mg/kg SC, versus Morphine alone; FIGS. 2A-2C.
Data set [14] concerns the target CYP1A2 (Homo sapiens, UniProt P05177). Particulars: 0.1 μM-25 μM, human liver microsomes.
For data set [15], the target named is CYP2B6 (Homo sapiens, UniProt P20813). Particulars: 0.1 μM-25 μM, human liver microsomes.
Sequence of CYP2B6 (Homo sapiens, UniProt P20813) (P20813 whole entry): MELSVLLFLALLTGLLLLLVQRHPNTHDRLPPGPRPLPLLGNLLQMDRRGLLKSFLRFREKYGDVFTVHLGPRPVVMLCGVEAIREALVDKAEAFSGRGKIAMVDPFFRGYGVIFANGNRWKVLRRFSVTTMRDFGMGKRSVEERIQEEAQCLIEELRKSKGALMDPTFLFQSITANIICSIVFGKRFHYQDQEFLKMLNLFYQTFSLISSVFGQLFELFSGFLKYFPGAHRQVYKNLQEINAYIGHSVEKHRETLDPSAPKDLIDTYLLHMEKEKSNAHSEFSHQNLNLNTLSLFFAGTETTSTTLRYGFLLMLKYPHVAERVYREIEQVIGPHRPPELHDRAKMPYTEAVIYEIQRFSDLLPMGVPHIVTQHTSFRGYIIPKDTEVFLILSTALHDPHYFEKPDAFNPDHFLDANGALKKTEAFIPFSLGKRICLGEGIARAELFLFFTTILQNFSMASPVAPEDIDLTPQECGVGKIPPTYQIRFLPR
For data set [16], the target named is T4, CYP3A4 (Homo sapiens, UniProt P08684). The following applies: 0.1 μM-25 μM, human liver microsomes, substrate midazolam.
T4 sequence (P08684 whole entry): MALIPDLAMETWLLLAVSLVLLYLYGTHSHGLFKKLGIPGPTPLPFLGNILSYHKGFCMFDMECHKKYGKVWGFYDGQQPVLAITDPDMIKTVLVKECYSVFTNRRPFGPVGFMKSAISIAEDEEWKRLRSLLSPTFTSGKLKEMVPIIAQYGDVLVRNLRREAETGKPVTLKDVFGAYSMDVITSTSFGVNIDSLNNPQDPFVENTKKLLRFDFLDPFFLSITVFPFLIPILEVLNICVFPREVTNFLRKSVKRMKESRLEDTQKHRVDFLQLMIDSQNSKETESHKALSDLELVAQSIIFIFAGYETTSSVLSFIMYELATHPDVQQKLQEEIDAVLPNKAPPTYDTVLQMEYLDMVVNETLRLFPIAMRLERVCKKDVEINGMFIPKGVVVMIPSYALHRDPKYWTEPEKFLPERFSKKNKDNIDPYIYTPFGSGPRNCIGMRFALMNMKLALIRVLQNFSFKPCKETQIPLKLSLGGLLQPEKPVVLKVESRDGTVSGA
Data set [17] addresses T4, CYP3A4. The following applies: 0.1 μM-25 μM, human liver microsomes, substrate testosterone.
Data set [18] deals with CYP1A2. Particulars: human hepatocytes, 72 hr, 0.4-100 μM, any concentration tested.
The test system of data set [19] is CYP2B6. The following applies: human hepatocytes, 72 hr, at 100 μM.
Data set [20] concerns CYP3A4. Particulars: human hepatocytes, 72 hr, 0.4-100 μM, any concentration tested.
Data set [21] relates to Caco-2 cells. Put plainly: Caco-2 Permeability (A-B or Bi-directional).
The nature of data set [22]: Brain Tissue Binding, equilibrium dialysis, rat. The following applies: brain homogenate.
Data set [23] can be described thus: Brain Tissue Binding, equilibrium dialysis, mouse. The following applies: fraction unbound could not be determined.
The target in data set [24] is CYP2C8 (Homo sapiens, UniProt P10632). Put plainly: CYP2C8 Inhibition, human liver microsomes, paclitaxel. The following applies: 0.1 μM-25 μM.
Sequence of CYP2C8 (P10632 whole entry): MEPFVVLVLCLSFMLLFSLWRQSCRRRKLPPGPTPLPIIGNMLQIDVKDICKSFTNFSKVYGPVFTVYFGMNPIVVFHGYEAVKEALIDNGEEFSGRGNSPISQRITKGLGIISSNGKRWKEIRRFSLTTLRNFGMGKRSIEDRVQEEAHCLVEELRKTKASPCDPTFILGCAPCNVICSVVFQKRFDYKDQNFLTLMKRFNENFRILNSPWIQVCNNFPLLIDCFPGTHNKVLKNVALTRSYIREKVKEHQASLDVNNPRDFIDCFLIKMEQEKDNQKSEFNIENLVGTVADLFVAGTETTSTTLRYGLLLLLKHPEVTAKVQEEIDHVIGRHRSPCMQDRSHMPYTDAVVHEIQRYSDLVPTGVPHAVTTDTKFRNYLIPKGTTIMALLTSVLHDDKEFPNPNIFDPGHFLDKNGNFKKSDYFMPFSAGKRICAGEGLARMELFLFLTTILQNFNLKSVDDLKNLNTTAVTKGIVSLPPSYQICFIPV
Data set [25] addresses CYP2C9 (Homo sapiens, UniProt P11712). Put plainly: CYP2C9 Inhibition, human liver microsomes, tolbutamide. Particulars: 0.1 μM-25 μM.
The target in data set [26] is hERG potassium channel (Homo sapiens, UniProt Q12809). Put plainly: hERG Channel Inhibition (IC50 Determination), IonWorks automated patch clamp, CHO cells.
The target in data set [27] is T2, μ (MOP) (h). The class given is cell-based.

Where two headings read alike, the source gives them in different places. Where only a bound is given, the exact number is not on record here.

T3 sequence (P10635 whole entry): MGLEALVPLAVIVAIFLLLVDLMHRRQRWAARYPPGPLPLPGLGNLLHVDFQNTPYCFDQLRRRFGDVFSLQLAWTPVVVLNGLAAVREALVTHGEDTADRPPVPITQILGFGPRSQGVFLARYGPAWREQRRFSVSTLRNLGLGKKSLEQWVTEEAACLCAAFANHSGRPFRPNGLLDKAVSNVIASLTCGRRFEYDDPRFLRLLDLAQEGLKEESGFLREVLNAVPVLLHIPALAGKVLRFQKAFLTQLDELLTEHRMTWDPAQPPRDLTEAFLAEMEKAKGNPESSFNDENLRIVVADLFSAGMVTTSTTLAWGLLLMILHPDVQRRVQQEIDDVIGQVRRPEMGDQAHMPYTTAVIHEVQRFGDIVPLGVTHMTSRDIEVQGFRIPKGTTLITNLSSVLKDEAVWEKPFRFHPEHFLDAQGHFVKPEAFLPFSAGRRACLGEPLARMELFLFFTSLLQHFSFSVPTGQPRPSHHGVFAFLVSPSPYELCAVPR
T2 sequence (P35372 whole entry): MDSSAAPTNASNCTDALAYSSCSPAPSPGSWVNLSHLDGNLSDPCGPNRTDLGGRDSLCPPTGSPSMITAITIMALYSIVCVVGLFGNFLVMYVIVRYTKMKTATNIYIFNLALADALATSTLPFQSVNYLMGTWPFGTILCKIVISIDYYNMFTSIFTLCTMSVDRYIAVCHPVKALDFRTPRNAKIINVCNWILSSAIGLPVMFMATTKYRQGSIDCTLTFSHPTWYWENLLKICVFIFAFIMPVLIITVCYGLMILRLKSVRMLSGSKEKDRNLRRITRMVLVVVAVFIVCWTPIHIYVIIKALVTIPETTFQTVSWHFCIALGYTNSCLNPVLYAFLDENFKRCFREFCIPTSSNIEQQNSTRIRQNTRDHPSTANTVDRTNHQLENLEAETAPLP
Sequence of CYP1A2 (Homo sapiens, UniProt P05177) (P05177 whole entry): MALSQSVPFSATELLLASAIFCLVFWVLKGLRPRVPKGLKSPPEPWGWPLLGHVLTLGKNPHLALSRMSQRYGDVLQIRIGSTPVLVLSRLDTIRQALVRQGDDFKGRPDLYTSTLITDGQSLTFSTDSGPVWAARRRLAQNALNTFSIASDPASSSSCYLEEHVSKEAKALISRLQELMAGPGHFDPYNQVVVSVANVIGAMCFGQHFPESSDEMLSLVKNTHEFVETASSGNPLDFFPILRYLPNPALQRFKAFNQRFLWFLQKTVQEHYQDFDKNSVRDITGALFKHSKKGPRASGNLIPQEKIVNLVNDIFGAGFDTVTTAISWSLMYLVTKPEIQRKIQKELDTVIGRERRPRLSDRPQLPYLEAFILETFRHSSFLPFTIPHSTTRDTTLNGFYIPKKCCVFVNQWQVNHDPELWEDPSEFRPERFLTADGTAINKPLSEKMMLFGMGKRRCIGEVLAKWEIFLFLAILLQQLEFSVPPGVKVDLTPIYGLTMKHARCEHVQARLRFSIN
Sequence of CYP2C9 (P11712 whole entry): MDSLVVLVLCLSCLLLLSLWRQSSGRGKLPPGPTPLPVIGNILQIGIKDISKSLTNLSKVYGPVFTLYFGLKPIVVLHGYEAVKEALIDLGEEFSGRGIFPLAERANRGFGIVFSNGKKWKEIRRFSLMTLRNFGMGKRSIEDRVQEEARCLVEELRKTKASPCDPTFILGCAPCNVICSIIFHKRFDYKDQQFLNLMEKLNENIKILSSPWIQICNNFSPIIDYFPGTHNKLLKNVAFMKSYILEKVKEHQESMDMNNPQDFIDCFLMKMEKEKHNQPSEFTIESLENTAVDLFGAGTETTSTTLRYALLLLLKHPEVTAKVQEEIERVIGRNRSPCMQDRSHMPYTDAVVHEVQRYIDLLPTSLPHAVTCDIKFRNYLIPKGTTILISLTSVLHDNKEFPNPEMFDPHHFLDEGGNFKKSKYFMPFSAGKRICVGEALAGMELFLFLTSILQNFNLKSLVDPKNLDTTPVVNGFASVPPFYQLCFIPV

For the compound `COc1cc2nc(N3CCN(C(=O)c4ccco4)CC3)nc(N)c2cc1OC` [prazosin, reference compound], the efflux ratio result in [1] is listed as “showing efflux”.
Take `O=C(NC1CCN(CCc2ccccc2)CC1)c1ccoc1` [N-(1-phenethylpiperidin-4-yl)furan-3-carboxamide]: the nH stood at 0.7 in data set [2], 1 in data set [3], 1.1 in data set [4] and 0.8 in data set [5].
For the compound `CCC(=O)NC1CCN(CCc2ccccc2)CC1` [Compound 1, N-(1-phenethylpiperidin-4-yl)propionamide], the “permeability in the MDCK assay” value in data set [1] (10 μM, pH 7.4, 60 min) was “highly permeable”. The efflux ratio came out at 1.48 in data set [1] and 2.70 in data set [21] (pH gradient (pH 6.8/7.4)). The IC50 in [6] (0 minute incubation) and in [26] was more than 25 µM each time. Moreover, in data set [6] (IC50 shift, 30 min pre-incubation ± NADPH), the “time-dependent CYP2D6 inhibition” value is “no evidence of time-dependent CYP2D6 inhibition”. Further, the CYP2D6 inhibition result in data set [6] (0 minute incubation) and in data set [6] (30 minute plus NADPH incubation) was “approximately 40%” in each case. In [7], the “binding to plasma proteins” value is “weak, or no noticeable binding”. In addition, the bioavailability entry in data set [8] was “highly bioavailable”. Also, the toxicity result in data set [9] is given as “virtually no toxicity”. The “inhibition of L-DOPA induced dyskinesias” value in [10] (Rodent in vivo model) and in [11] was “significant inhibition” in each case. For the same compound, in [10] (comparison with amantadine, model not specified (Rodent and Primate models named)), the “effectiveness versus amantadine against L-dopa-induced dyskinesia” value is “significantly more effective than amantadine”. Also, the “time in chamber associated with morphine administration (CPP)” value in data set [12] is reported as “significantly less time”. In addition, the “analgesic property (tail flick, 52° C. water)” value in data set [13] was “almost identical analgesic property compared to morphine alone”. Further, the CYP1A2 inhibition result in data set [14] is reported as “No significant inhibition”. Besides, the CYP2B6 inhibition result in data set [15] is “No significant inhibition”. For the same compound, the “CYP3A4 inhibition (midazolam)” value in [16] is reported as “No significant inhibition”. Also, in [17], the “CYP3A4 inhibition (testosterone)” value is reported as “No significant inhibition”. Also, the “CYP1A2 mRNA expression” value in data set [18] is reported as “didn't cause a statistically significant change”. Moreover, the “CYP2B6 mRNA expression” value in data set [19] is given as “slight, yet statistically significant decrease”. Also, in data set [20], the “CYP3A4 mRNA expression” value is listed as “didn't cause a statistically significant change”. In addition, in data set [21] (10 μM, pH gradient 6.8/7.4, 120 min), the “permeability in the Caco-2 assay” value is “highly permeable in both directions”. In [22], the fraction unbound at 2 hr, 5 μM is 0.249. In addition, the binding in mouse entry in data set [23] was “no binding at all could be detected”. In addition, in data set [24], the CYP2C8 inhibition result is given as “No significant inhibition”. In addition, in data set [25], the CYP2C9 inhibition entry is given as “No significant inhibition”.
For the compound `O=C(NC1CCN(CCc2ccccc2)CC1)c1ccccc1` [N-(1-phenethylpiperidin-4-yl)benzamide], the nH is on record as 1.3 in data set [2], 0.7 in [3], 0.6 in [4] and 0.9 in data set [5].
Regarding `O=C(NC1CCN(CCc2ccccc2)CC1)c1ccco1` [N-(1-phenethylpiperidin-4-yl)furan-2-carboxamide], the nH in data set [2] stood at 0.7; in data set [3], 1; in data set [4], 1.1; in [5], 0.8.
Regarding `CCC(=O)NC1CCN(CCc2cccs2)CC1` [N-(1-(2-(thiophen-2-yl)ethyl)piperidin-4-yl)propionamide], the nH in data set [2] was found to be 1.2; in data set [3], 0.9; in data set [4], 0.6; in [27], 0.6.
For the compound `O=C(CCCCCCCBr)NC1CCN(CCc2ccccc2)CC1` [8-bromo-N-(1-phenethylpiperidin-4-yl)octanamide], the values for the nH in [2], in [4] and in data set [27] were 0.8, 0.5 and 0.4, respectively.
On to `CCC(=O)NC1CCN(CCC(=O)OC)CC1` [Methyl 3-(4-propionamidopiperidin-1-yl) propanoate], for which the nH in data set [2] came out at 1; in [4] it was 0.8; in [5] it was 0.5.
